Publication PMC4438233, “Antibacterial effects of Traditional Chinese Medicine monomers against Streptococcus pneumoniae via inhibiting pneumococcal histidine kinase (VicK)” (Frontiers in Microbiology, 2015)
“And” between values parts separate entries of the source, which are not always exact repeats. Equal values may be shown once. Read-outs that look alike come from different tables or passages of the source. Blank lines part the entries; values can stand above or below the molecule they belong to.

Columns and labels:
S. mutans = experiment: MIC against S. mutans; format: cell-based; conditions: Streptococcus mutans
Procedure: (§1) Minimum inhibitory concentration (MIC) assays for the antibacterial activities of the compounds were performed according to the standard […] method of the Clinical and Laboratory Standards Institute of America. MIC testing of drug-resistant S. pneumoniae, drug-resistant S. aureus, streptococci and antimicrobial combination was also performed using the same method. Briefly, the drugs were serially diluted 2-fold into eight wells with C+Y medium, yielding final concentrations ranging from […]. Then 10^6 CFU bacteria were added to each well. Inoculated medium containing 1% DMSO served as a bacterial growth control, whereas uninoculated medium served as a sterility control. The plates were incubated at 37°C for 12–16 h. […] The experiment was repeated three times.

S. mitis = experiment: MIC against S. mitis; format: cell-based; conditions: Streptococcus mitis
Procedure: as §1

full-length VicK protein = molecular target: T1, full-length VicK protein (Streptococcus pneumoniae, UniProt Q8DPL8); experiment: Inhibition assay for ATPase activity of VicK (Kinase-Glo Luminescent Kinase Assay); format: biochemical; conditions: 6 μg VicK, 5 μM ATP, read-out: IC50 (inhibition of VicK ATPase activity / autophosphorylation) (converted)
T1 construct: 6 His; made in house
Procedure: The inhibitory activities of the Chinese medicine monomers for the ATPase activity of the full-length VicK protein were evaluated using the Kinase-Glo™Luminescent Kinase Assay (Promega, Madison, USA). Briefly, 6 μg VicK protein was pre-incubated with a series of dilution of compounds in the reaction buffer at 37°C for 30 min. 5 μM ATP was added and incubated for another 30 min. Kinase-Glo™Reagent was also added to detect the remaining ATP recorded from luminescence measurements (RLU). In parallel, the VicK protein with no addition of compounds was used as a control, and the mixture with compounds excluding the VicK protein served as another control. The rate of protein phosphorylation (Rp) inhibition by the compounds was calculated from Equation (1).
(1) Rp=1−RLU(compound+ATP+Reagent) −RLU(compound+ATP+vick+Reagent)/RLU(ATP +Reagent)−RLU(ATP+vick+Reagent)×100%
The half maximal inhibitory concentration (IC50), which is the concentration of inhibition of 50% VicK protein autophosphorylation, was determined by GraphPad Prism 5 (Qin et al., [2006]).

S. pneumoniae = experiment: Checkerboard test with erythromycin or tetracycline against S. pneumoniae; format: cell-based, Streptococcus pneumoniae
Procedure: The antimicrobial effects of different combinations of two antimicrobial agents were assayed using the checkerboard test (Bajaksouzian et al., [1997]). Each experiment was repeated thrice. […] The FIC index (FICI) was calculated using the following formula:
(§2) (2) FIC=FICA+FICB=[A]/MICA+[B]/MICB
(§3) where [A] and [B] are the concentrations of drugs A and B, respectively; MICA and FICA are the MIC and FIC of drug A for the organism, respectively; and MICB, and FICB are the MIC and FIC of drug B for the organism, respectively. The FIC index obtained was interpreted as follows: =0.5, synergy; FIC > 2.0, antagonism (Gupta and Kohli, [2003]).

S. pyogenes = experiment: MIC against S. pyogenes; format: cell-based; conditions: Streptococcus pyogenes
Procedure: as §1

S. pneumoniae NCTC7466 [1] = experiment: Mouse sepsis model, survival time; format: in vivo, BALB/c mice; conditions: i.p. infection 1 × 10^3 CFU, drug i.p. thrice a day for 3 d, untreated control 28.8 ± 1.25
Procedure: Female BALB/c mice (12–15 per group) aged 4–6 weeks were used to evaluate the antimicrobial effects of the compounds in vivo. In sepsis models, the mice were intraperitoneally infected with 100 μL S. pneumoniae NCTC7466 strain suspension (1 × 10^3 CFU). […] Two control groups were injected with 100 μL 1% DMSO (dissolved the drugs, negative control) or PEN (0.42 mg/kg/d, positive control) following the same injection route. The result was expressed as cumulative survival times following 7 d of observation.

pneumococcal strains = experiment: MIC against clinical pneumococcal strains (penicillin susceptible, intermediate, resistant); format: cell-based, Streptococcus pneumoniae; conditions: for MIC50 / MIC90: Streptococcus pneumoniae
Procedure: as §1

Cytotoxicity assay (MTT) = format: cell-based; conditions: African green monkey
Procedure: The cytotoxicity of the drugs to Vero cells (African green monkey kidney cells) was detected as previously described (Huang et al., [2012]) with minor modifications. In 96-well cell culture plates, the cells (~10^3 cells per well) were exposed to the serially diluted drugs for 48 h. Then, relative cell numbers were assayed by co-incubation with 3-(4, 5-dimethylthiazol-2-yl)-2, 5-diphenyltetrazolium bromide for 4 h at 37°C in 5% CO2. Purple formazan salts were dissolved with DMSO after incubation. The absorbance of each well was measured at 595 nm and then converted to percentages of the control (cells treated with 1% DMSO). The concentration of the derivatives with 50% cytotoxicity for Vero cells (CC50) was calculated using GraphPad Prism 5 (San Diego, CA).

[2] = tested on: Penicillin-resistant S. pneumoniae strains; experiment: Checkerboard test with penicillin against penicillin-resistant S. pneumoniae; format: cell-based, Streptococcus pneumoniae; conditions: agent alone; for MIC: Streptococcus pneumoniae
Procedure: as §1
(§4) The antimicrobial effects of different combinations of two antimicrobial agents were assayed using the checkerboard test (Bajaksouzian et al., [1997]). Each experiment was repeated thrice. The in vitro interaction between the five drugs with PEN was quantified by the fractional inhibitory concentration (FIC). The FIC index (FICI) was calculated using the following formula:
as §2, §3

S. pneumoniae NCTC7466 [3] = experiment: MIC against S. pneumoniae NCTC7466 (D39); format: cell-based; conditions: Streptococcus pneumoniae
Procedure: as §1

S. pseudopneumoniae = experiment: MIC against S. pseudopneumoniae; format: cell-based; conditions: Streptococcus pseudopneumoniae
Procedure: as §1

[4] = tested on: clinical S. pneumoniae 19F (CMCC31693); experiment: Mouse colonization model, serotype 19F; format: in vivo, BALB/c mice; conditions: 19F
Procedure: (§5) In colonization models, the mice were intranasally challenged by 20 μL of clinical drug-resistant strains (pneumococcal serotype 19F or 19A, 1.5 × 10^8 CFU). An hour later, the mice were intraperitoneally injected with 100 μL drugs (2 × MIC) alone or in combination with PEN (2 × MIC). These injections were continued thrice a day for 3 d. Nasal wash and lung tissues were obtained to analyze the bacteria load at 24, 48, and 72 h after drug infection. Then 100 μL aliquots of the samples diluted were plated on blood agar plates. The colonies were counted after incubation overnight at 37°C with 5% CO2.

S. aureus = experiment: Checkerboard test with penicillin against S. aureus; format: cell-based, Staphylococcus aureus; conditions: agent alone
Procedure: as §1, §4, §2, §3

[5] = tested on: clinical S. pneumoniae 19A (CMCC31689); experiment: Mouse colonization model, serotype 19A; format: in vivo, BALB/c mice; conditions: 19A
Procedure: as §5

[6] = in combination with Erythromycin
[7] = in combination with Tetracycline
[8] = Penicillin intermediate (n = 12)

T1 sequence (Q8DPL8 whole entry): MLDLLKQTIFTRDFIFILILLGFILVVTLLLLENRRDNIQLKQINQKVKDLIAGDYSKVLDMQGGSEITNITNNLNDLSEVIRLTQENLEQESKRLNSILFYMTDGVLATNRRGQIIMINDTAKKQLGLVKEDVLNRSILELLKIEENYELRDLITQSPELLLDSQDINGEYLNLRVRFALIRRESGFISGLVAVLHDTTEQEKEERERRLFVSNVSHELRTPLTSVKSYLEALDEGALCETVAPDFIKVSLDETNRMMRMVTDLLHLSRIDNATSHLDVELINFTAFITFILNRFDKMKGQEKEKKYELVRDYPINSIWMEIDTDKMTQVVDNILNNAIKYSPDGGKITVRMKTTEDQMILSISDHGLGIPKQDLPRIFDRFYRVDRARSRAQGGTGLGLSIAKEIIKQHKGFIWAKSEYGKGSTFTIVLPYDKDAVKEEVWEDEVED

Compound: COC1=CC(=O)O[C@@H](/C=C/c2ccc3c(c2)OCO3)C1 [Compound 4, Kavahin]
MIC (S. mutans): 274 µg/mL
MIC (S. mitis): 274 µg/mL
IC50 (full-length VicK protein): 4.6 µM
IC50 (full-length VicK protein; value in parentheses): 4.56 µM
FICI (S. pneumoniae; [6]): 0.5
Outcome (S. pneumoniae; [6]): Synergy (=0.5, synergy)
FICI (S. pneumoniae; [7]): 0.51
MIC (S. pyogenes): 274 µg/mL
Mean survival of mice ± SEM (S. pneumoniae NCTC7466 [1]; listed as Kavahin): 71.1 ± 7.1 h
Mean survival of mice ± SEM (S. pneumoniae NCTC7466 [1]; listed as kavahin): 71 h
MIC of pneumococcal strains, Range (pneumococcal strains; [8]): 68 to 518 µg/mL
MIC of pneumococcal strains, Range (pneumococcal strains; Penicillin resistant (n = 15)): 68.5 to 548 µg/mL
MIC of pneumococcal strains, Range (pneumococcal strains; Penicillin susceptible (n = 7)): 34 to 272 µg/mL
MIC50 (pneumococcal strains; read-out: MIC of pneumococcal strains, MIC50, Penicillin intermediate (n = 12)): 137 µg/mL
MIC50 (pneumococcal strains; read-out: MIC of pneumococcal strains, MIC50, Penicillin resistant (n = 15)): 274 µg/mL
MIC50 (pneumococcal strains; read-out: MIC of pneumococcal strains, MIC50, Penicillin susceptible (n = 7)): 68.5 µg/mL
MIC90 (pneumococcal strains; read-out: MIC of pneumococcal strains, MIC90, Penicillin intermediate (n = 12)): 274 µg/mL
MIC90 (pneumococcal strains; read-out: MIC of pneumococcal strains, MIC90, Penicillin resistant (n = 15)): 548 µg/mL
MIC90 (pneumococcal strains; read-out: MIC of pneumococcal strains, MIC90, Penicillin susceptible (n = 7)): 136 µg/mL
CC50 at 48 h (Cytotoxicity assay (MTT); Vero cells): > 8000 µM
MIC ([2]; read-out: MIC, Alone, strain 652336): 548 µg/mL
MIC ([2]; read-out: MIC, Alone, strain 736007): 274 µg/mL
MIC ([2]; read-out: MIC, Alone, strain 8364981): 548 µg/mL
MIC ([2]; read-out: MIC, Alone, strain 12092624): 274 µg/mL
MIC (S. pneumoniae NCTC7466 [3]; NCTC7466): 68.5 µg/mL and 250 µM
MIC (S. pseudopneumoniae): 34 µg/mL

MIC, Alone (S. aureus; MRSA8506305): 6682 µg/mL
MIC, Alone (S. aureus; MRSA8548991): 3339 µg/mL
MIC, Alone (S. aureus; S. aureus ATCC29213): 52 µg/mL
MIC, Alone ([2]; strain 652336): 4.4 µg/mL
MIC, Alone ([2]; strain 736007): 7.1 µg/mL
MIC, Alone ([2]; strain 8364981): 3.56 µg/mL
MIC, Alone ([2]; strain 12092624): 3.56 µg/mL
Compound: CC1(C)S[C@@H]2[C@H](NC(=O)Cc3ccccc3)C(=O)N2[C@H]1C(=O)O [Penicillin, penicillin, reference compound]
Mean log CFU at site of infection ([4]; Lung, 24 h, control 2.82): 1 log CFU
Mean log CFU at site of infection ([4]; Lung, 48 h, control 7.57): 2.58 log CFU
Mean log CFU at site of infection ([4]; Lung, 72 h, control 4.95): 3.22 log CFU
Mean log CFU at site of infection ([4]; NW (nasal wash), 24 h, i.p. three times a day for 3 days, control 6.72): 6.21 log CFU
Mean log CFU at site of infection ([4]; NW, 48 h, control 6.27): 2.1 log CFU
Mean log CFU at site of infection ([4]; NW, 72 h, control 7.09): 6.12 log CFU
Mean log CFU at site of infection ([5]; Lung, 24 h, control 4.85): 4.8 log CFU
Mean log CFU at site of infection ([5]; Lung, 48 h, control 6.12): 4.5 log CFU
Mean log CFU at site of infection ([5]; Lung, 72 h, control 6.29): 4.89 log CFU
Mean log CFU at site of infection ([5]; NW (nasal wash), 24 h, i.p. three times a day for 3 days, control 7.29): 6.44 log CFU
Mean log CFU at site of infection ([5]; NW, 48 h, control 5.97): 5.88 log CFU
Mean log CFU at site of infection ([5]; NW, 72 h, control 6.01): 5.34 log CFU

Compound: CSC[C@H]1O[C@@H](n2cnc3c(N)ncnc32)[C@H](O)[C@@H]1O [Compound 1, 5′-(Methylthio)-5′-deoxyadenosine]
MIC (S. mutans; S. mutans clinical isolate, 10^6 CFU/ml, read-out: MIC): 594 µg/mL
MIC (S. mitis; S. mitis clinical isolate, 10^6 CFU/ml, read-out: MIC): 148 µg/mL
IC50 (full-length VicK protein): 3.8 µM
IC50 (full-length VicK protein; value in parentheses): 3.77 µM
FICI (S. pneumoniae; [6]): 2
FICI (S. pneumoniae; [7]): 0.9
MIC (S. pyogenes; S. pyogenes clinical isolate, 10^6 CFU/ml, read-out: MIC): 148 µg/mL
Mean survival of mice ± SEM (S. pneumoniae NCTC7466 [1]): 49.5 ± 3.93 h
MIC of pneumococcal strains, Range (pneumococcal strains; [8]): 74 to 594 µg/mL
MIC of pneumococcal strains, Range (pneumococcal strains; Penicillin resistant (n = 15)): 296.8 to 593.6 µg/mL
MIC of pneumococcal strains, Range (pneumococcal strains; Penicillin susceptible (n = 7)): 74 to 148 µg/mL
MIC50 (pneumococcal strains; Penicillin intermediate (n = 12), read-out: MIC of pneumococcal strains, MIC50): 148 µg/mL
MIC90 (pneumococcal strains; Penicillin intermediate (n = 12), read-out: MIC of pneumococcal strains, MIC90): 296 µg/mL
MIC50 (pneumococcal strains; Penicillin resistant (n = 15), read-out: MIC of pneumococcal strains, MIC50): 297 µg/mL
MIC90 (pneumococcal strains; Penicillin resistant (n = 15), read-out: MIC of pneumococcal strains, MIC90): 297 µg/mL
MIC50 (pneumococcal strains; Penicillin susceptible (n = 7), read-out: MIC of pneumococcal strains, MIC50): 74 µg/mL
MIC90 (pneumococcal strains; Penicillin susceptible (n = 7), read-out: MIC of pneumococcal strains, MIC90): 148 µg/mL
CC50 at 48 h (Cytotoxicity assay (MTT); Vero cells (African green monkey kidney cells)): > 16000 µM
MIC ([2]; strain 652336, read-out: MIC, Alone): 297 µg/mL
MIC ([2]; strain 736007, read-out: MIC, Alone): 297 µg/mL
MIC ([2]; strain 8364981, read-out: MIC, Alone): 148 µg/mL
MIC ([2]; strain 12092624, read-out: MIC, Alone): 297 µg/mL
MIC (S. pneumoniae NCTC7466 [3]; S. pneumoniae NCTC7466 (D39), read-out: MIC): 37.1 µg/mL
MIC (S. pneumoniae NCTC7466 [3]; S. pneumoniae NCTC7466 (D39), value in parentheses, read-out: MIC): 124 µM
MIC (S. pseudopneumoniae; S. pseudopneumoniae clinical isolate, 10^6 CFU/ml, read-out: MIC): 148 µg/mL
